Measurements as given in patent US20100119483A1, “PEPTIDE VIRAL ENTRY INHIBITORS” (Schering Corporation, priority 2004, published 2010).
“And” between values parts separate entries of the source, which are not always exact repeats. Identical values can stand only once. Ends that are not written are not given here.

Tests used:
[1] = system: HCV pseudoparticles; assay: HCV pseudoparticle (HCVpp) entry assay in Huh7 hepatoma cells, luciferase readout; type: cell-based, hepatitis C virus; settings: for luciferase units, HCV entry: duplicates; for HCVpp % inh: peptide library screen, first screened at 100 ug/ml, cell entry inhibition vs uninhibited control
Outline: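 Huh7 cells were pre-treated with peptide for 1 h at 37 °C before exposure to HCV E1/E2-pseudotyped HIV luciferase particles made in 293T cells, followed by 72 h culture and luciferase readout. Peptides were tested at 10 points, 3-fold, from 100 ug/ml; particles lacking envelope served as non-specific entry control.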

[2] = system: amphotropic murine leukemia virus; assay: AMLV pseudotyped virus entry counter-screen, same infection protocol; type: cell-based; settings: for luciferase units, AMLV entry: duplicates; for AMLVpp % inh: peptide library screen, cell entry inhibition vs uninhibited control
Method: Infection of hepatoma cell lines with HCV pseudotype particles and screen for inhibitory peptides. The hepatoma cells, Huh7, was seeded at 8000 cells in 90 ul medium in 96-well plate. In the case of the inhibitor screen, the inhibitor was incubated with cells for one hour at 37° C. and then 50 ul viral supernatant was added to the cells 24 hours after seeding. The viral stock was pre-tittered and diluted to yield approximately 10,000 to 20,000 RLU. The cells were incubated at 37° C. with 5% CO2 for additional 72 hours and were harvested for luciferase assay. Peptide stocks were prepared in 100% DMSO at 10 mg/ml and were first screened at 100 ug/ml and then a dose responsive curve was generated with 10 points 3-fold titration starting from 100 ug/ml.
The specificity of the peptides were counter-screened with AMLV and HIV pseudotyped viruses using the same infection protocol.

[3] = 0.01371742 uM of peptide (three lines)

Substance: LKLFEVYLILWLA (HCV peptide) [SEQ ID NO: 138, scrambled 13-mer]
- luciferase units, HCV entry ([1]; 0.04115226 uM of peptide, listed as scrambled SEQ ID NO: 138): 12287 luciferase units and 13159 luciferase units and 13838 luciferase units and 13589 luciferase units and 10645 luciferase units and 10230 luciferase units
- luciferase units, HCV entry ([1]; 0.1234568 uM of peptide, listed as scrambled SEQ ID NO: 138): 9257 luciferase units and 8961 luciferase units and 11382 luciferase units and 10746 luciferase units and 7229 luciferase units and 6598 luciferase units
- luciferase units, HCV entry ([1]; 0.3703704 uM of peptide, listed as scrambled SEQ ID NO: 138): 7620 luciferase units and 8597 luciferase units and 9180 luciferase units and 5716 luciferase units and 8494 luciferase units and 8291 luciferase units
- luciferase units, HCV entry ([1]; 1.111111 uM of peptide, listed as scrambled SEQ ID NO: 138): 6456 luciferase units and 7681 luciferase units and 9683 luciferase units and 9482 luciferase units and 9053 luciferase units and 7359 luciferase units
- luciferase units, HCV entry ([1]; 3.333333 uM of peptide, listed as scrambled SEQ ID NO: 138): 7729 luciferase units and 11535 luciferase units and 12632 luciferase units and 8653 luciferase units and 8028 luciferase units and 10288 luciferase units
- luciferase units, HCV entry ([1]; 30 uM of peptide, listed as scrambled SEQ ID NO: 138): 7047 luciferase units and 5340 luciferase units and 7406 luciferase units and 5158 luciferase units and 5107 luciferase units and 5826 luciferase units
- activity compared to the wild type 13-mer peptide ([1]; HCVpp entry inhibition, in words): still showed some activity, though weakened
- luciferase units, AMLV entry ([2]; 0.04115226 uM of peptide, listed as scrambled SEQ ID NO: 106): 43854 luciferase units and 39721 luciferase units and 46556 luciferase units and 44480 luciferase units and 40734 luciferase units and 47413 luciferase units
- luciferase units, AMLV entry ([2]; 0.1234568 uM of peptide, listed as scrambled SEQ ID NO: 106): 39298 luciferase units and 28711 luciferase units and 46132 luciferase units and 49974 luciferase units and 42958 luciferase units and 51726 luciferase units
- luciferase units, AMLV entry ([2]; 0.3703704 uM of peptide, listed as scrambled SEQ ID NO: 106): 48158 luciferase units and 45212 luciferase units and 49139 luciferase units and 49219 luciferase units and 51358 luciferase units and 50551 luciferase units
- luciferase units, AMLV entry ([2]; 1.111111 uM of peptide, listed as scrambled SEQ ID NO: 106): 49084 luciferase units and 39443 luciferase units and 53349 luciferase units and 51341 luciferase units and 46069 luciferase units and 46019 luciferase units
- luciferase units, AMLV entry ([2]; 3.333333 uM of peptide, listed as scrambled SEQ ID NO: 106): 50674 luciferase units and 41738 luciferase units and 60859 luciferase units and 50020 luciferase units and 51236 luciferase units and 49388 luciferase units
- luciferase units, AMLV entry ([2]; 30 uM of peptide, listed as scrambled SEQ ID NO: 106): 87785 luciferase units and 60410 luciferase units and 83010 luciferase units and 77083 luciferase units and 85612 luciferase units and 79287 luciferase units

Substance: V-G-G-V-E-H-R-L-E-A-A-C-N-W-T-R (VGGVEHRLEAACNWTR; HCV peptide) [SEQ ID NO: 66]
- HCVpp % inh [1]: 22%
- AMLVpp % inh [2]: 34%

Substance: N-W-S-P-T-A-A-L-V-V-S-Q-L-L-R-I [SEQ ID NO: 22]
- HCVpp % inh [1]: 54%
- AMLVpp % inh [2]: −11%

Substance: L-V-V-S-Q-L-L-R-I-P-Q-A-V-V-D-M [SEQ ID NO: 23]
- HCVpp % inh [1]: 3%
- AMLVpp % inh [2]: −1%

Substance: L-E-D-R-D-R-S-E-L-S-P-L-L-L-S-T (LEDRDRSELSPLLLST; not fully specified (C-terminus); printed as L-E-D-R-D-R-S-E-L-S-P-L-L-L-S-T) [SEQ ID NO: 69]
- HCVpp % inh [1]: −15%
- AMLVpp % inh [2]: 1%

Substance: A-I-K-W-E-Y-V-L-L-F-L-L-L [SEQ ID NO: 98]
- % control (HCVpp entry), proline scanning ([1]; 0.1 nM of peptide (printed for three rows), two values per peptide and row): 85 % control and 77 % control and 86 % control and 109 % control and 95 % control
- % control (HCVpp entry), proline scanning ([1]; 0.3 nM of peptide, two values per peptide): 90 % control and 68 % control
- % control (HCVpp entry), proline scanning ([1]; 1 nM of peptide, two values per peptide): 93 % control and 94 % control
- % control (HCVpp entry), proline scanning ([1]; 3 nM of peptide, two values per peptide): 86 % control and 52 % control
- % control (HCVpp entry), proline scanning ([1]; 10 nM of peptide, two values per peptide): 47 % control and 50 % control
- luciferase units, HCV entry [1, 3]: 9747 luciferase units and 12623 luciferase units and 16027 luciferase units and 17299 luciferase units and 19079 luciferase units and 17575 luciferase units
- % control (HCVpp entry), proline scanning ([1]; 30 nM of peptide, two values per peptide): 41 % control and 35 % control
- luciferase units, HCV entry ([1]; 0.04115226 uM of peptide): 6486 luciferase units and 6677 luciferase units
- % control (HCVpp entry), proline scanning ([1]; 100 nM of peptide, two values per peptide): 31 % control and 41 % control
- luciferase units, HCV entry ([1]; 0.1234568 uM of peptide): 4583 luciferase units and 6873 luciferase units
- % control (HCVpp entry), proline scanning ([1]; 300 nM of peptide, two values per peptide): 21 % control and 29 % control
- luciferase units, HCV entry ([1]; 0.3703704 uM of peptide): 2830 luciferase units and 5272 luciferase units
- luciferase units, HCV entry ([1]; 1.111111 uM of peptide): 3285 luciferase units and 2555 luciferase units
- luciferase units, HCV entry ([1]; 3.333333 uM of peptide): 2647 luciferase units and 2056 luciferase units
- luciferase units, HCV entry ([1]; 10 uM of peptide): 2186 luciferase units and 2352 luciferase units
- % control (HCVpp entry), proline scanning ([1]; 10000 nM of peptide, two values per peptide): 27 % control and 24 % control
- luciferase units, HCV entry ([1]; 30 uM of peptide): 1938 luciferase units and 2251 luciferase units
- % of control at ~30 uM ([1]; percentage of hepatitis C virus cellular entry at 30 μM peptide vs uninhibited control): 10%
- luciferase units, AMLV entry [2, 3]: 44492 luciferase units and 44531 luciferase units and 47406 luciferase units and 49869 luciferase units and 51067 luciferase units and 61382 luciferase units
- luciferase units, AMLV entry ([2]; 0.04115226 uM of peptide): 41463 luciferase units and 41610 luciferase units
- luciferase units, AMLV entry ([2]; 0.1234568 uM of peptide): 45455 luciferase units and 45030 luciferase units
- luciferase units, AMLV entry ([2]; 0.3703704 uM of peptide): 42748 luciferase units and 48710 luciferase units
- luciferase units, AMLV entry ([2]; 1.111111 uM of peptide): 45508 luciferase units and 44147 luciferase units
- luciferase units, AMLV entry ([2]; 3.333333 uM of peptide): 59984 luciferase units and 48300 luciferase units
- luciferase units, AMLV entry ([2]; 10 uM of peptide): 111324 luciferase units and 59835 luciferase units
- luciferase units, AMLV entry ([2]; 30 uM of peptide): 81103 luciferase units and 70832 luciferase units

Substance: P-Y-R-L-W-H-Y-P-C-T-V-N-F-T-I-F (PYRLWHYPCTVNFTIF; HCV peptide) [SEQ ID NO: 63]
- HCVpp % inh [1]: 44%
- AMLVpp % inh [2]: 3%

Substance: C-N-C-S-I-Y-P-G-H-V-T-G-H-R-M-A [SEQ ID NO: 19]
- HCVpp % inh [1]: 49%
- AMLVpp % inh [2]: 26%

Substance: G-V-Y-H-V-T-N-D-C-S-N-A-S-I-V-Y [SEQ ID NO: 4]
- HCVpp % inh [1]: −23%
- AMLVpp % inh [2]: −6%

Substance: N-S-T-G-F-T-K-T-C-G-C-P-P-C-N-I [SEQ ID NO: 55]
- HCVpp % inh [1]: 23%
- AMLVpp % inh [2]: 3%

Substance: A-A-L-C-S-A-M-Y-V-G-D-L-C-G-S-V [SEQ ID NO: 14]
- HCVpp % inh [1]: 39%
- AMLVpp % inh [2]: −42%

Substance: T-R-P-P-Q-G-N-W-F-G-C-T-W-M-N-S [SEQ ID NO: 53]
- HCVpp % inh [1]: 59%
- AMLVpp % inh [2]: −42%

Substance: V-M-L-L-F-A-G-V-D-G-G-T-Y-V-T-G [SEQ ID NO: 29]
- HCVpp % inh [1]: −22%
- AMLVpp % inh [2]: 11%
